From patent US20240059739A1, “PEPTIDES FOR INCREASING DRUG DELIVERY TO CANCER” (Chapman University, priority 2022, published 2024)
Where a SMILES comes first, the peptide text is derived from it.

Key:
[1] = tested on: human primary glioma U87 cells; assay: Binding to glioma cells (data not shown); assay type: cell-based
[2] = tested on: human melanoma cell lines (A375, Sk-mel-28, wm115) compared to normal human HEK-293 cells; assay: Peptide array-whole cell binding assay (CyQUANT fluorescence); assay type: cell-based; settings: average fluorescent intensity of melanoma cells (A375, Sk-mel-28, wm115) bound to peptide divided by that of HEK-293 cells bound to same peptide
Description: Peptide array synthesis. Fifty-three peptide sequences were synthesized in duplicate on derivatized cellulose membrane (Intavis, Germany) using a ResPep SL Autospot robot. The detailed method was explained previously (Ahmed et al. Anal Chem. 82:7533-7541, 2010; Hossein-Nejad-Ariani et al. Sci Rep. 9:2723, 2019). Briefly, the sequences of peptides were entered in the robot software, and 384 spot synthesis mode was selected for this library. First, the membrane was dipped in DMF for an hour followed by transfer and support to the holder of the robot on filter paper. Then the membrane was washed with ethanol and subjected to a vacuum to remove any bubbles under the membrane. The Fmoc strategy was used for peptide synthesis. DIC and Oxyma pure were used as coupling reagent and racemization suppressor, respectively. After each coupling, capping of unreacted amino acids was done using acetic anhydride (3%), followed by 20% piperidine for Fmoc deprotection. The C-terminal end of all peptides were bound to the membrane. Following the synthesis, the membrane was dipped in deprotection solution containing 15 mL TFA, 15 mL DCM, 900 μL TIPS, and 600 μL water, and kept for 3 h at room temperature. Next, membranes were thoroughly washed with DCM, DMF, and ethanol. Finally, they were air dried and kept in a sealed bag at −20° C. until use.
Peptide array cell binding assay. The sequential steps of the assay are as described in a previous publication (Ahmed et al. 2010; Soudy et al. J Med Chem. 54:7523-7534, 2011). The membrane was dipped in ethanol for 30 sec to remove any precipitation of hydrophobic peptides. Then the membrane was dipped in sterile PBS at pH 7.4 for 30 min. The cells (75×10^3 cells/mL) were seeded directly on the membrane in a sterile plate and incubated at 37° C. for 4 h. After washing off the unbound cells with sterile PBS, pH 7.4, the membrane was frozen at −80° C. for 2 h. Subsequently, it was defrosted at room temperature and incubated in CyQUANT solution at 37° C. for 30 min following the manufacturer's protocol. The membrane was then washed with sterile PBS and air-dried.
Membranes were scanned using the ChemiDoc™ XRS+system (Bio-Rad) to analyze the fluorescence intensity of each spot. The setting was adjusted based on the excitation and emission wavelength of the CyQUANT dye at 465 nm and 535 nm, respectively. The fluorescence intensity (FI) was normalized by the FI of non-cancerous HEK-293 cells.
A library of 53 peptides was synthesized in an array format on a cellulose membrane using SPOT synthesis (Table 1). The peptide library was designed starting with five lead cancer cell targeting peptides, Arg peptide (1, Table 1), p160 analogue (11), RGD (16), GE11 (20), and LSD (37). Conservative substitutions, deletion from the N- or C-terminus, alanine scan, and scrambling of amino acids were used to design the analogues for the library. The peptides were screened for specific binding to three human melanoma cell lines. The cells were incubated with the cellulose membranes with conjugated peptides followed by incubation with CyQUANT fluorescence dye. A brief schematic for the peptide array-whole cell binding assay for screening peptides with high affinity for melanoma cells is shown in FIG. 2A. The relative cell adhesion capacities of the peptides to A375 (FIG. 2B), Sk-mel-28 (FIG. 2C), and wm115 were estimated based on the fluorescence of the bound melanoma cells compared to normal human HEK-293 cells.

[3] = tested on: A375 human melanoma xenograft; assay: In vivo xenograft melanoma mouse model
Protocol: FIG. 5A; the tumors were measured three times a week using digital Vernier calipers. Tumor volume (mm^3) was calculated as [Length×(Width^2)/2. […] FIG. 5C; the body weights of the mice were measured after 21 days of treatment. Statistical analysis was performed with student's t-test and error bars denote mean±SD: *, p<0.05 compared to control group.
In vivo xenograft melanoma mouse model. Nude mice (Nu/Nu) were purchased from Charles River (Wilmington, MA) and were housed and maintained in the Chapman University vivarium under pathogen-free conditions. A375 cells were suspended in cold Matrigel and injected subcutaneously into the flank of each mouse (1×10^6 cells per mouse) to establish tumors. […] For the co-treatment, the solution of D-aa KK-11 and MAC-3-190 (1:11 molar ratio) was mixed gently and incubated at room temperature for 30 min before injection via tail vein. The growth of the tumors was monitored three times a week and measured using digital Vernier calipers. The tumor volume (mm^3) was calculated as [Length×(Width^2)]/2 (in mm). The mice were sacrificed after 21 days per IACUC policy when the control group's average tumor size reached 2,000 mm^3. Tumor xenografts were removed and weighed.

[4] = tested on: A375 melanoma cells; assay: In vitro cytotoxicity detected by MTT colorimetric assay; assay type: cell-based, human; settings: in vitro
Protocol: (§1) The bar represents the average fluorescence density of three cell lines (A375, Sk-mel-28, and wm3211 cells) detected by fluorescence-activated cell sorting (FACS) analysis. The cells were incubated with FITC-labeled peptide for […] at 37° C. (0.5 μM, grey bar; 1 μM, dark bar). The control is cells incubated with FITC alone. […] Cells were either treated with DOX or co-treated with DOX and KK-11 (1 μM) for 72 h (KK-11+DOX) or pretreated with KK-11 for 4 h, then washed away following a DOX 72 h treatment (KK-11 to DOX). Control is DMSO or KK-11 alone. Cell viability was detected by a MTT colorimetric assay. Statistical analysis was performed with a student's t-test, and error bars denote mean±SD; **, p<0.01; ***, p<0.001 compared to DOX alone. […] Cells were treated with MAC-3-190 at various concentrations with or without 1 μM KK-11 for 72 h. Cell viability was detected by MTT assay. The assays were repeated independently at least three times.
In vitro cytotoxicity detected by MTT colorimetric assay. Cells were seeded in a 96-well plate and allowed to adhere overnight prior to adding the compound. After 72 h of treatment in serum-free media, an MTT solution was added to each well to give a final concentration of 0.5 mg/mL and was incubated for 3 h. Formed crystals were solubilized, and the absorbance was measured at 595 nm.

[5] = Serum stability (RP-HPLC AUC of intact peptide); assay type: in vitro ADME
Protocol: Serum stability. Human serum (250 μL) was thawed to room temperature and was added to DMEM media (650 μL). The mixture was kept in a 37° C. incubator to mimic human body temperature for 15 min. The peptide (100 μL, 1 mM) was dissolved (dispersed) in sterile water. The peptide solution was added to the pre-warmed human serum and DMEM mixture. The mixture was incubated at 37° C. At different time points (0, 0.5, 1, 5, and 24 h) aliquots (100 μL) were removed and added to methanol (200 μL). Each time point sample was kept at 4° C. for 5 min and then was centrifuged at 500×g for 15 min to separate serum proteins. The supernatant was injected into the RP-HPLC, and the major peaks were collected. The peak's mass was determined using MALDI-TOF mass analysis. The serum stabilities of the D-aa KK-11 were determined by comparing the HPLC peaks (AUC) for the intact peptides at different time points.
For in vivo studies, peptide KK-11 was labeled with a fluorescent Vivotag 680 XL in the N-terminus (Scheme 1). In addition, two amino acids in the sequence (norleucine and arginine) were substituted with D-amino acids to increase proteolytic stability. These amino acids were identified as proteolytically labile sites. The D-aa KK-11 peptide was assembled on acid-labile Rink amide resin and was characterized. The proteolytic stability of the D-aa KK-11 peptide was evaluated by incubating with human serum. The presence of the intact peptide after incubation with human serum for different time periods was detected using RP-HPLC and confirmed by MALDI-TOF mass analysis. […] However, peptide KK-11 with all L-amino acids reduced to an undetectable level within 30 min (data not shown). For conjugating VivoTag 680 XL dye, the peptide was modified by incorporating a β-alanine moiety generating the precursor Aβ-KK-11. The structure and mass of Aβ-KK-11 were confirmed by NMR (^1H and ^13C) and MALDI-TOF [M+H]^+ 1588.5 Da. Next, the β-alanine terminal amino group was allowed to react with the succinimidyl ester group of the reactive fluorophore (VivoTag 680 XL) under basic conditions in polar aprotic solvent, generating the fluorescently labeled peptide with extrusion of N-hydroxysuccinimide (NHS) (Scheme 1). The mass of the fluorescence-labeled VivoTag-Aβ-KK-11 was confirmed by MALDI-TOF, showing a peak at 2823.4 Da, corresponding to [M+H]^+.

[6] = tested on: human melanoma A375 tumor xenografts and organs; assay: In vivo and ex vivo imaging of biodistribution in mice bearing A375 xenografts; design: species or system athymic nude mice; settings: ex vivo imaging
Protocol: FIG. 4A and FIG. 4B-1 and FIG. 4B-2 show in vivo and ex vivo organ distribution images of VivoTag 680 XL-labeled D-aa KK-11 in athymic nude mice bearing human melanoma A375 tumors. Saline or VivoTag-KK-11 in a dose of 8 μg per mouse was injected into the mice via the tail vein (n=2 for each time point).
The top panels represent the scanned images of the tumor section area in coronal views. The bottom-row pictures display the fluorescence image in trans-axial views: arrows point to the spine, and circles mark the xenograft tumors.
Organs including tumor xenografts (T), liver (L), spleen (S), heart and lungs (H+L), kidneys (K), and brain (B) were excised and imaged using the IVIS Spectrum imaging system. Representative fluorescence images of different organs show peptide distribution at different time points as indicated.
Ex vivo and in vivo imaging. The study was carried out in compliance with Animal Research: Reporting of In Vivo Experiments (ARRIVE) guidelines. All the animal procedures were approved by the Institutional Animal Care and Use Committee (IACUC) at Chapman University and conducted in compliance with the policies of Chapman University, and federal, state, and local animal welfare authorities. Male and female athymic nude mice (4-6 weeks old) were kept (5 in each cage) in a pathogen-free environment. Approximately 10^6 human melanoma A375 cells (0.1 mL in normal saline), mixed with 0.1 mL cold Matrigel (#354248; Corning, Corning, NY), were injected subcutaneously in the flank. The tumor size was measured with a caliper, and body weight was recorded once a week. When the tumor size reached approximately 800-1000 mm^3 as calculated using the following formula: [Length×(Width^2)]/2 (in mm), mice were processed for in vivo or ex vivo imaging.
For in vivo imaging, normal saline or VivoTag-KK-11 at a dose of 8 μg per mouse was injected into the mice via the tail vein (n=2 for each time point). The animals were then scanned at different time intervals (0.5, 2, 6, and 24 h) using an IVIS Spectrum in vivo imaging system (PerkinElmer, Waltham, MA). The mice were imaged for 0.5 sec, 10 bin, level B at an emission wavelength of 688±5 nm. Imaging was limited to no more than once a day and was conducted under continuously maintained isoflurane. Mice were maintained on alfalfa-free diets to minimize the background fluorescence. All the study animals survived through the in vivo imaging procedure.
For ex vivo imaging at defined time intervals (5, 15, 30 min, followed by 1, 1.5, 2, 3, 4, 6, 24, and 48 h) following fluorescence conjugate injection, animals were euthanized via carbon dioxide inhalation (n=2 for each time point); tumor, liver, spleen, heart, lungs, brain, and kidneys were collected and briefly rinsed with saline. The organs were then imaged for 0.5 sec, 10 bin, level B at an emission wavelength of 688±5 nm using an IVIS Spectrum imaging system.

[7] = tested on: human melanoma cells (wm3211, Sk-mel-28, A375); assay: In vitro cellular uptake of FITC-labeled peptides by flow cytometry (FACS); assay type: cell-based; settings: 0.5 and 1 μM
Protocol: as §1
In vitro cellular uptake analysis. The peptide (FITC-labeled) concentration was determined using a Shimadzu BioSpec-nano Micro-volume UV-Vis spectrophotometer (Shimadzu). Human melanoma cells (wm3211, Sk-mel-28, and A375) were incubated with FITC or FITC-labeled peptides at final concentrations of 0.5 μM and 1 μM for 2 h. […] The mean fluorescence density of 10,000 cells was analyzed and compared to that of control cells.

| Compound | binding to U87 cells [1] | Fluorescence Ratio [2] | toxicity of peptide alone in vivo [3] | cytotoxicity of peptide alone [4] | time until reduced to an undetectable level ([5]; human serum, data not shown) [min] | remaining at 5 h, 100 µM ([5]; human serum (25% v/v in DMEM), 37° C., 5 h, read-out: area under the curve of the peptide peak, of control (t=0 h)) [%] | remaining at 24 h, 100 µM ([5]; human serum (25% v/v in DMEM), 37° C., 24 h, read-out: area under the curve of the peptide peak / peptide remaining, of control (t=0 h)) [%] | area under the curve of the peptide peak / peptide remaining, of control (t=0 h) ([5]; human serum, 37° C., 24 h) [%] | time at which fluorescence is evident in tumor xenografts ([6]; 8 μg per mouse, tail vein) [min] | time fluorescence remained detectable in tumor xenografts ([6]; single tail vein injection) | uptake by melanoma cells (in words) [7] |
| --- | --- | --- | --- | --- | --- | --- | --- | --- | --- | --- | --- |
| VPWXEPAYQRFL [Peptide 11, X stands for norleucine] | can also bind | 1.80 | No cytotoxicity | No cytotoxicity | ≤ 30 | – | – | – | – | – | – |
| CCCC[C@@H](NC(=O)[C@H](Cc1c[nH]c2ccccc12)NC(=O)[C@@H]1CCCN1C(=O)[C@@H](N)C(C)C)C(=O)N[C@@H](CCC(=O)O)C(=O)N1CCC[C@H]1C(=O)N[C@@H](C)C(=O)N[C@@H](Cc1ccc(O)cc1)C(=O)N[C@@H](CCC(N)=O)C(=O)N[C@H](CCCNC(=N)N)C(=O)N[C@@H](Cc1ccccc1)C(=O)N[C@@H](CC(C)C)C(N)=O [D-aa KK-11, VPWxEPAYQrFL] (HELM PEPTIDE1{V.P.W.[CCCC[C@@H](N[*:1])C(=O)[*:2]].E.P.A.Y.Q.[dR].F.L.[am]}$$$$V2.0; N-terminus assumed) | – | – | – | – | – | 97.4 | 45.3 | 45.3 | ≤ 5 | up to 24 h | – |
| GRRPRPRPRP [Peptide 1, FITC-labeled (β-alanine spacer) in the uptake study] | – | 1.82 | – | – | – | – | – | – | – | – | significantly increased uptake |
